Measurements as given in a melting point compilation (Tetko et al.; mined from patent text by program, amines drawn as free bases though some values may be those of a salt).

First: Cc1c(C(=O)Nc2ccc(N3CCN(C4CCOCC4)CC3)c(C#N)c2)cnn1-c1cccc(Cl)c1
Second: CC1Oc2c(cc(CN3CCN(c4ccc(C#N)cc4)CC3)cc2C2CC2)NC1=O (configuration not stated)
The melting point of the first is higher: 230 °C for the first, 194 to 196 °C for the second.

First: CCn1cc(C(=O)C(Cl)Cl)c(=O)c(-c2cccc(C(F)(F)F)c2)c1
Second: CCNC(=O)n1nc(Oc2ncc(C(F)(F)F)cc2Cl)c(Cl)c1C
The melting point of the first is lower: 108 to 110 °C for the first, 111 to 112 °C for the second.

First: CS(=O)(=O)OCCOCCOC(=O)Cc1ccccc1Nc1c(Cl)cccc1Cl
Second: CCCCNc1c(NCc2ccccc2)cc(C(=O)O)cc1S(N)(=O)=O
The melting point of the first is lower: 87 °C for the first, 198 to 199 °C for the second.

First: CCCCCSc1ncccc1C(=O)NCCCCn1cnc2c(N)nc3ccccc3c21
Second: O=C(O)CCCC(=O)c1cc(-c2ccccc2)nc2ccccc12
The melting point of the first is higher: 158 to 161 °C for the first, 136 °C for the second.

First: CC(=O)SCCC(=O)N1c2cc(C)ccc2CCC1C(=O)O (configuration not stated)
Second: CCCC(=O)NCCC1=CCc2ccc(OC)cc21
The melting point of the first is higher: 119 to 122 °C for the first, 64 to 67 °C for the second.

First: COc1ccc2c(c1)C(=O)C(Cc1cccc(N)c1)CC2 (configuration not stated)
Second: COC(=O)C(C)Oc1ccc(OCc2ccccc2)cc1 (configuration not stated)
The melting point of the first is higher: 159 to 161 °C for the first, 63 to 65 °C for the second.

Compared with `CC(C)OP(C)(=O)COS(=O)(=O)c1c(Cl)cccc1C(C)C` (configuration not stated), `Cc1nn(C)c(N)c1C(=O)Nc1ccccc1C(C)C` is higher in melting point: 69.5 to 70.5 °C for the first, 144 to 146 °C for the second.

First: COc1ccc(CN(CCN(C)CCCCNC(=NCCCOc2cccc(CN3CCCCC3)c2)NC#N)c2ccccn2)cc1
Second: Cc1oc(-c2ccccc2)nc1COc1ccc(COc2ccc(Br)cc2CC(=O)O)cc1
The melting point of the first is lower: 106 to 108 °C for the first, 162 to 163 °C for the second.

First: Oc1ccc2c(c1)CCC(CCN1CCCCC1)C2 (configuration not stated)
Second: CS(=O)(=O)Nc1cccc(Nc2nc(OCC3CCCCC3)c3nc[nH]c3n2)c1
The melting point of the first is lower: 154 to 157 °C for the first, 169 to 172 °C for the second.

Compared with `O=C1C(Br)=C(c2ccccc2)C(=O)N1Nc1ccccc1`, `Oc1nn(-c2ccccc2)cc1Cc1ccccc1` is higher in melting point: 146 to 147 °C for the first, 185 to 186 °C for the second.

Compared with `Cc1cc(-c2cnn3c(C(F)(F)F)cc(-c4ccc(Cl)c(Cl)c4)nc23)cc(C)n1`, `COc1ccc(Cl)c(Oc2c(C)nc(-c3ncccn3)nc2Cl)c1` is lower in melting point: 281 °C for the first, 110 °C for the second.

First: CC(C)n1nc(-c2sc(C(=O)NCCc3ccccn3)nc2-c2ccc(F)cc2)ccc1=O
Second: O=c1c(CCCc2ccccn2)cc2cccnc2n1-c1ccc2nsnc2c1
The melting point of the first is lower: 144 to 145 °C for the first, 170 °C for the second.

First: Cc1cccc(-c2nsc(=O)o2)c1
Second: Oc1ccc(-c2nc3ccccc3o2)cc1
The melting point of the first is lower: 82.5 to 84 °C for the first, 253 °C for the second.

First: O=C(NC(Cc1ccc([N+](=O)[O-])cc1)C(=O)C(F)(F)F)c1ccccc1 (configuration not stated)
Second: O=C(c1ccccc1)c1cccnc1Cl
The melting point of the first is higher: 175 °C for the first, 35 to 37 °C for the second.

First: NC(=NO)c1c(F)cccc1Cl
Second: CC(Oc1ncn(-c2cccc(Cl)c2)n1)C(=O)O (configuration not stated)
The melting point of the first is lower: 115 to 120 °C for the first, 197 to 199 °C for the second.

First: C#CCCCCOc1ccc(C=O)cc1OC
Second: CC(=O)Oc1cnccc1CCCOc1cccnc1Cc1cccc(Br)c1
The melting point of the first is lower: 67 to 68 °C for the first, 122 to 128 °C for the second.

Compared with `O=C1c2sccc2-n2cnc(-c3noc(CCl)n3)c2[C@@H]2CCN12`, `COC(=O)Cc1cc2c(s1)-n1c(C)nnc1C(C)N=C2c1ccccc1Cl` (configuration not stated) is lower in melting point: 210 to 213 °C for the first, 105 to 106 °C for the second.

`CN(c1ccc(Cl)cc1)c1nc(=O)c2ccncc2s1` and `O=c1[nH]c2cc(F)ccc2c(=O)n1S(=O)(=O)c1ccc(Cl)cc1` cannot be ordered by melting point: 255 to 256 °C for the first, over 200 °C for the second.

Compared with `Cc1cc(C)c(CC(C)CC(C(=O)C(CC(C)Cc2c(C)cc(C)cc2C)N2C(=O)c3ccccc3C2=O)N2C(=O)c3ccccc3C2=O)c(C)c1` (configuration not stated), `COc1cc(C=CC(=O)Nc2cnc3c(C)cc(C)cc3c2-c2ccccc2Cl)ccc1OC(C)=O` is higher in melting point: 131 to 132 °C for the first, 174 to 175 °C for the second.

First: Cc1ccc(S(=O)(=O)OC[C@@H]2COc3ccc4scc(Cl)c4c3O2)cc1
Second: Cc1ccc(S(=O)(=O)OCC2Cc3cc(F)cc(Br)c3O2)cc1 (configuration not stated)
The melting point of the first is higher: 169 to 170 °C for the first, 84 to 86 °C for the second.

First: Cc1c(CC(=O)O)c2cc(OCc3nc4ccccc4s3)ccc2n1Cc1ccccc1
Second: c1ccc2cc(Cn3c(-c4ccc5c(c4)OCO5)nc4ccccc43)ccc2c1
The melting point of the first is higher: 186 to 188 °C for the first, 180 °C for the second.

Compared with `O=C1c2ccccc2C2(c3ccc(Cl)cc3)NCCCCN12` (configuration not stated), `O=S1(=O)c2cccc3cccc(c23)N1CCCN1CC=C(c2ccc(Cl)cc2)CC1` is lower in melting point: 134 to 135 °C for the first, 111 °C for the second.

Compared with `O=C(O)C[C@@H](c1ccccc1)c1c[nH]c2cc(OCCCNc3ccccn3)ccc12`, `OCCN(CCO)c1cc(-c2ccccn2)nc(-c2ccccn2)c1` is higher in melting point: 137 °C for the first, 171 to 172 °C for the second.

First: CC(C)C(N)=C(C#N)C#N
Second: CC1=C(O)C(=O)C(C)(C(C)O)O1 (configuration not stated)
The melting point of the first is higher: 163 to 164 °C for the first, 112 to 114 °C for the second.

First: CCCCC(=O)c1oc(=O)[nH]c1C
Second: CCCCCCCCC=CCCCCCCCC(N)=O
The melting point of the first is higher: 92 to 94 °C for the first, 68 °C for the second.

First: Cn1cnc(S(=O)(=O)N2CCC3(CC2)CSC2=C(O3)c3ccccc3C(=O)C2=O)c1
Second: CS(=O)(=O)N1CCCn2c(nc3c(N)nc4ccccc4c32)C1
The melting point of the first is lower: 256 to 257 °C for the first, 280 °C for the second.

Compared with `Cc1ncnc(-c2cc([N+](=O)[O-])c(F)cc2F)c1Cl`, `COC(=O)C1=C(C)NC(c2scnc2C)=NC1c1ccc(F)cc1Cl` (configuration not stated) is higher in melting point: 95 to 97 °C for the first, 145 to 147 °C for the second.

First: c1ccc(CSc2nnc(-c3ccc4c(c3)CCO4)o2)cc1
Second: COc1ccccc1S(=O)C1CC(=O)N1CC(=O)CCc1ccccc1 (configuration not stated)
The melting point of the first is higher: 148 to 149 °C for the first, 129 to 131 °C for the second.

First: COC1(c2cc(Sc3ccc(/C(C)=N/O)cc3)nc(N)n2)CCOCC1
Second: COC1(c2cccc(S(=O)(=O)c3ccc4c(c3)C(C)(C)C(=O)N4C)c2)CCOCC1
The melting point of the first is higher: 237 to 240 °C for the first, 164 to 166 °C for the second.

First: CCC(ON=c1c2nccc3cccc(c32)n2cccc12)C(=O)O (configuration not stated)
Second: COC(=O)CCc1cc2cc(Br)ccc2n1S(=O)(=O)c1ccccc1
The melting point of the first is higher: 180 °C for the first, 109 to 113 °C for the second.

First: CNS(=O)(=O)Nc1ccc(OCC2CCN(c3ccncc3)CC2)cc1
Second: CCCC1(C(O)CCCN2CCC(N3Cc4ccccc4C3=O)CC2)c2ccccc2-c2ccccc21 (configuration not stated)
The melting point of the first is higher: 170 to 172 °C for the first, 75 to 78 °C for the second.

Compared with `CSc1nc(Cl)nc2sc(C)cc12`, `C=CCNc1nc(Cl)c2ccn(C)c2n1` is higher in melting point: 111 to 112 °C for the first, 113 to 114 °C for the second.

First: CCOc1nn(-c2ccc(C(F)(F)F)cn2)cc1CCCOc1ccc(CCC(=O)O)c(OC)c1
Second: CCOC(=O)CCCCCN(NS(=O)(=O)c1ccc(Cl)cc1)C(=O)Nc1cc(OC)cc(C(C)(C)C)c1O
The melting point of the first is higher: 120 to 121 °C for the first, 69 to 70 °C for the second.

Compared with `COC(=O)COc1cccc2c(CCN=[N+]=[N-])coc12`, `CCc1cccc(C)c1CNc1nc(OCCOC)cc2c1nc(C)n2C` is higher in melting point: 95 to 97 °C for the first, 105 °C for the second.

First: COC(=O)C(C)(C)OCc1cc2cc(Cl)ccc2n1S(=O)(=O)c1cc(C)cc(C)c1
Second: COc1ccc(COc2ccc(-c3ccc(C#N)c(=O)[nH]3)cc2OC)cc1OC
The melting point of the first is lower: 110 to 112 °C for the first, 220 to 221 °C for the second.

First: CC(=O)ON1C(C)(C)CC(OC(=O)c2ccccc2C(=O)OC2CC(C)(C)N(OC(C)=O)C(C)(C)C2)CC1(C)C
Second: COc1ccc(OC)c2c1COC(C(=O)O)C2 (configuration not stated)
The melting point of the first is higher: 172 to 175 °C for the first, 164 to 166 °C for the second.
